Patent EP1769677B1, “METHOD OF IDENTIFYING THERAPEUTIC COMPOUNDS WHICH CAN BE USED FOR THE TREATMENT AND/OR PREVENTION OF INFECTIONS AND DISEASES CAUSED BY HUMAN HERPESVIRUSES” (Universidad Aut Noma de Madrid, priority 2004, dated 2005)

Columns and labels:
[1] = system: herpes simplex virus type 1 (HSV-1) of the KOS strain; experiment: Viral load in organs of mothers and progeny by quantitative PCR after acyclovir treatment of infected mothers; assay type: in vivo, mice
Method: All the animals included in the experimental process were 14-week old female mice of the C57Bl/6 lineage. Between two and three adult mice were used per analysis group and between 13 and 25 neonates, depending on the availability of animals. […] All the animals went through a quarantine period and were treated with strict precautions against contamination during inoculation and dissection. The animals were intraperitoneally infected with a dose 10^6 pfu of herpes simplex virus type 1 (HSV-1) of the KOS strain (provided by el Dr. L. Carrasco, Centro de Biologia Molecular Severo Ochoa, Universidad Autónoma of Madrid). […] The first group of mice was not given any treatment. […] Therefore the antiviral concentration administered per dose and mouse was 0.25 mg (10 mg/kg per mouse, far from the toxicity limit of 80 mg/kg cited above), with a total daily dose of 0.75 mg/day.
The dissected organs in the adult animals were the following: blood, ovaries, adrenal gland, spinal cord, brain, cerebellum and trigeminal ganglia. The entire brain was separated into three rough regions: midbrain, ventricles and cerebral cortex. In the neonates, the dissected organs were blood, spinal cord and encephalon. DNA was extracted using conventional methods (NucleoSpin®, Cat. K3053-2, ClonTech, USA). The viral load of the different organs was analyzed by means of quantitative PCR. […] Primers specific for the sequence of the viral polymerase (pol) gene were used to detect the virus (SEQ. ID. NO: 3 and SEQ. ID. NO: 4) (120 bp amplicon). The PCR conditions were one cycle of 95°C for 10 minutes, followed by 45 cycles at 95°C for 30 seconds, 55°C (for β-actin) or 60°C (for viral polymerase) for 30 seconds, and a last cycle of 72°C for 40 seconds. The virus concentration range used for optimizing the quantitative PCR standard curve was expressed as plaque forming units (pfu). For calibrating the β-actin gene, nanograms were used as the unit of this endogenous gene. The identity of the amplified products was checked by analysis of the denaturation curves, by gel electrophoresis and restriction analysis.

human herpesviruses = experiment: Survival with acyclovir given ad libitum in the drink (vertical transmission model); assay type: in vivo, mice; details: acyclovir ad libitum in drinking water, high dose (as printed, final daily dose 1.50 mg), from the day of the vaginal plug
Method: Assuming that a mouse drinks about 3 ml a day, 2 working dilutions ([…] so that the final daily dose was 0.75 mg, and […] so that the final daily dose was 1.50 mg) were used.

[2] = in vivo; cited from earlier work
[3] = system: herpes simplex virus type 1 (HSV-1) of the KOS strain; experiment: Neonate mortality after acyclovir treatment of HSV-1 infected mothers (vertical mother-progeny transmission model); assay type: in vivo, mice; details: neonates of HSV-1 infected mothers, 0.25 mg per dose three times a day, from five days before crossbreeding until birth
Method: All the animals included in the experimental process were 14-week old female mice of the C57Bl/6 lineage. Between two and three adult mice were used per analysis group and between 13 and 25 neonates, depending on the availability of animals. The experiments were performed strictly following the Guidance on the Operation of Animals (Scientific Procedures, Act 1986), supervised by personnel of the Animal house of the Centro de Biologia Molecular Severo Ochoa. All the animals went through a quarantine period and were treated with strict precautions against contamination during inoculation and dissection. The animals were intraperitoneally infected with a dose 10^6 pfu of herpes simplex virus type 1 (HSV-1) of the KOS strain (provided by el Dr. L. Carrasco, Centro de Biologia Molecular Severo Ochoa, Universidad Autónoma of Madrid). […] The first group of mice was not given any treatment. […] Therefore the antiviral concentration administered per dose and mouse was 0.25 mg (10 mg/kg per mouse, far from the toxicity limit of 80 mg/kg cited above), with a total daily dose of 0.75 mg/day.
After birth and sacrifice, the progeny survival rates and the mother and neonate viral loads were analyzed. The adult animals remained asymptomatic during the entire experimental process, suffering no mortality.

[4] = oral acyclovir, daily dose 0.75 mg

Nc1nc2c(ncn2COCCO)c(=O)[nH]1 [acyclovir]
viral loads both in the mothers and in the progeny ([1]; acyclovir daily dose of 0.75 mg, both administration routes (oral and subcutaneous), Figure 7): significant reduction | viral levels in all the analyzed organs of the descendants ([1]; oral acyclovir to the mothers, daily dose 0.75 mg, blood, spinal cord, encephalon): almost complete elimination | virus levels in blood of the mothers [1, 4]: virtually undetectable | virus levels in the trigeminal ganglia of the mothers [1, 4]: virtually undetectable | levels of the virus in the progeny's CNS ([1]; subcutaneous acyclovir to mothers, daily dose 0.75 mg, Figure 7B): considerably lower levels of the virus | levels of the virus in all the analyzed organs of the mother ([1]; subcutaneous acyclovir, daily dose 0.75 mg, Figure 7A): considerably lower levels of the virus | survival of the animals (human herpesviruses): higher | toxicity limit [2]: 80 mg/kg | mortality ([3]; oral acyclovir to mothers, none of the 17 animals): no mortality was observed | mortality rate ([3]; subcutaneous acyclovir to mothers, 1 out of 25): 4.0%
